These compounds were tested against HER2 kinase (Homo sapiens (Human), UniProt P04626) (assay: Inhibition of HER2 kinase activity (ULight-labeled PolyGT substrate)). Details: HER2 kinase 10 nM, ATP 10 μM, 2 hours.
Format: biochemical
Protocol: The assay for the inhibition of EGFR and HER2 kinase activity by small molecular compounds was carried out using the method as follows:
1) Dilution of the compounds
In a 96-well plate a, the compounds were diluted with DMSO using a 3-fold gradient dilution to form 11 concentrations, the 12th concentration is pure DMSO (as a positive control); and in a new 96-well plate b the above solutions were diluted 25 times with ultrapure water (DMSO concentration is 4%).
2) Transferring the compounds to 384-well plate
The compound solutions diluted with ultrapure water in the 96-well plate b above was transferred to the corresponding wells of a 384-well plate in duplicate.
3) Addition of 4×kinase solution: 2.5 μl of the above 4× kinase solution was taken using multichannel pipette and added to the corresponding reaction wells of the 384-well plate, mixed well and pre-reacted at room temperature for 5 minutes.
4) Addition of 2×substrate/ATP mixed solution: 5 μl of the above 2×substrate/ATP mixed solution was taken using multichannel pipette and added to the corresponding reaction wells of the 384-well plate.
5) Negative control: negative control wells were set in the 384-well plate, and 2.5 μl 4×substrate, 2.5 μl 4×enzyme solution, 2.5 μl 1×Kinase Assay Buffer and 2.5 μl ultrapure water containing 4% DMSO were added to each well.
6) Mixed by centrifugation and kept at room temperature for 2 hours in the dark.
7) Termination of the enzymatic reaction:
5 μl of the above 4× stop solution was pipetted to the corresponding wells of the 384-well plate, centrifuged and mixed, and reacted at room temperature for 5 minutes.
5 μl of the above 4× detection solution was pipetted into the corresponding wells of the 384-well plate, centrifuged and mixed, and reacted at room temperature for 1 hour.
9) The 384-well plate was placed into a microplate reader and the signal was detected using the corresponding program.
10) IC50 analysis: Well reading value=10000*EU665 value/EU615 value Inhibition rate=(reading value of positive control well−reading value of experimental well)/(reading value of positive control well−reading value of negative control well)*100% Corresponding IC50s can be calculated by entering the drug concentrations and the corresponding inhibition rates into GraphPad Prism 5.
Conditions of experiment for screening HER2 kinase inhibitory molecules:
The final concentration of HER2 kinase in the reaction system is 10 nM, the final concentration of ATP is 10 μM, the final concentration of substrate ULight™-labeled PolyGT is 100 nM, and the enzymatic reaction time is 2 hours.
The maximum final concentration of the compound in the reaction system is 2.5 μM, 11 concentrations were made with a 3-fold gradient dilution, and the minimal final concentration is 0.042 nM. The final concentration of DMSO is 1%.

Sequence of HER2 kinase (P04626 23-1255): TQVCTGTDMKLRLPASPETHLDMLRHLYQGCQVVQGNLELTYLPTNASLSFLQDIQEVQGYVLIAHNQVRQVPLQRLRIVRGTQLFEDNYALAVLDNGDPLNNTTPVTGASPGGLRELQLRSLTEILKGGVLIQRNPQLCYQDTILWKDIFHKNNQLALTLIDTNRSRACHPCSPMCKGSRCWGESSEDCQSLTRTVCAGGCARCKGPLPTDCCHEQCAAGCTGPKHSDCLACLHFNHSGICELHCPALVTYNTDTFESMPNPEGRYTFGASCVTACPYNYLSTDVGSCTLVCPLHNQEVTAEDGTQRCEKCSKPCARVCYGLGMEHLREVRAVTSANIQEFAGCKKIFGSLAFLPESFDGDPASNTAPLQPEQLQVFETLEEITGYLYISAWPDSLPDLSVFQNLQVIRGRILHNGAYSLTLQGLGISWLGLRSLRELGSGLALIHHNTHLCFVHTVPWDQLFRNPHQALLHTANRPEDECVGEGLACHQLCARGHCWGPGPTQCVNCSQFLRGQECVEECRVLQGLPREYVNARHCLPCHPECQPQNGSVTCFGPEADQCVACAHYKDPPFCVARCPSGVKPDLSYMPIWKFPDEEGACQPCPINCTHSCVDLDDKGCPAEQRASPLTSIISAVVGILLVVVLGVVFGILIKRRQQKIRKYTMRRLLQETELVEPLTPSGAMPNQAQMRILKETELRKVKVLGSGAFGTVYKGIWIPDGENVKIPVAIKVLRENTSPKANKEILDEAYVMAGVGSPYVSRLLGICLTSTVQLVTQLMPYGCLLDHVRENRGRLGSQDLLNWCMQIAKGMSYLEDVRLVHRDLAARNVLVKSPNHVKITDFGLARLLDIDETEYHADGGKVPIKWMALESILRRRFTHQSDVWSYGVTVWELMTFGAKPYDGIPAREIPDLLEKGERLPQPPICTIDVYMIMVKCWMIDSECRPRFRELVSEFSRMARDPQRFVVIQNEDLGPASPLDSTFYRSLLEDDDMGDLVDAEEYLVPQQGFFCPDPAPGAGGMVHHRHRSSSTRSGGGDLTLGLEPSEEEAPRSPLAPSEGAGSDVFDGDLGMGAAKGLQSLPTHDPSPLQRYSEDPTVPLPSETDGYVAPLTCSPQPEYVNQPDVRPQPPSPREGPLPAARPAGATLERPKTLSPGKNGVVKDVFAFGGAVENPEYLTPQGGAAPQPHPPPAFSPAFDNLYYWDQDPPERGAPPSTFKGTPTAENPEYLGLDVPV

Row | Compound | IC50
1 | C=CC(=O)N1CCOc2c1ccc1ncnc(Nc3ccc(Oc4cccc(OC)c4)cc3)c21 [Example 14, 1-(10-((4-(3-methoxyphenoxy)phenyl)amino)-2,3-dihydro-4H-[1,4]oxazino[2,3-f]quinazolin-4-yl)prop-2-en-1-one] | ≤ 50 nM
2 | C=CC(=O)N1CCOc2c1ccc1ncnc(Nc3ccc(Oc4ccc(F)cc4)cc3)c21 [Example 9, 1-(10-((4-(4-fluorophenoxy)phenyl)amino)-2,3-dihydro-4H-[1,4]oxazino[2,3-f]quinazolin-4-yl)prop-2-en-1-one] | ≤ 50 nM
3 | C=CC(=O)N1CCOc2c1ccc1ncnc(Nc3ccc(Oc4cccc(F)c4)cc3)c21 [Example 7, 1-(10-((4-(3-fluorophenoxy)phenyl)amino)-2,3-dihydro-4H-[1,4]oxazino[2,3-f]quinazolin-4-yl)prop-2-en-1-one] | ≤ 50 nM
4 | C=CC(=O)N1CCOc2c1ccc1ncnc(Nc3ccc(Oc4cccc(C)c4)cc3)c21 [Example 5, 1-(10-((4-(m-tolyloxy)phenyl)amino)-2,3-dihydro-4H-[1,4]oxazino[2,3-f]quinazolin-4-yl)prop-2-en-1-one] | ≤ 50 nM
5 | C=CC(=O)N1CCOc2c1ccc1ncnc(Nc3ccc(Oc4ccccc4OCCN(C)C)cc3)c21 [Example 30, 1-(10-((4-(2-(2-(dimethylamino)ethoxy)phenoxy)phenyl)amino)-2,3-dihydro-4H-[1,4]oxazino[2,3-f]quinazolin-4-yl)prop-2-en-1-one] | ≤ 50 nM
6 | C=CC(=O)N1CCOc2c1ccc1ncnc(Nc3ccc(OCc4cccc(C(F)(F)F)c4)cc3)c21 [Example 20, 1-(10-((4-((3-trifluoromethylbenzyl)oxy)phenyl)amino)-2,3-dihydro-4H-[1,4]oxazino[2,3-f]quinazolin-4-yl)prop-2-en-1-one] | ≤ 50 nM
7 | C=CC(=O)N1CCOc2c1ccc1ncnc(Nc3ccc(OCc4cccc(F)c4)c(OC)c3)c21 [Example 26, 1-(10-((4-((3-fluorobenzyl)oxy)-3-(methoxy)phenyl)amino)-2,3-dihydro-4H-[1,4]oxazino[2,3-f]quinazolin-4-yl)prop-2-en-1-one] | ≤ 50 nM
8 | C=CC(=O)N1CCOc2c1ccc1ncnc(Nc3ccc(Oc4ccccc4OCCCN(C)C)cc3)c21 [Example 31, 1-(10-((4-(2-(3-(dimethylamino)propoxy)phenoxy)phenyl)amino)-2,3-dihydro-4H-[1,4]oxazino[2,3-f]quinazolin-4-yl)prop-2-en-1-one] | 50 to 500 nM
9 | C=CC(=O)N1CCOc2c1ccc1ncnc(Nc3ccc(OCc4nccs4)cc3)c21 [Example 23, 1-(10-((4-(thiazol-2-ylmethoxy)phenyl)amino)-2,3-dihydro-4H-[1,4]oxazino[2,3-f]quinazolin-4-yl)prop-2-en-1-one] | ≤ 50 nM
10 | C=CC(=O)N1CCOc2c1ccc1ncnc(Nc3ccc(OCc4cccc(F)c4)c(F)c3)c21 [Example 27, 1-(10-((4-((3-fluorobenzyl)oxy)-3-fluorophenyl)amino)-2,3-dihydro-4H-[1,4]oxazino[2,3-f]quinazolin-4-yl)prop-2-en-1-one] | ≤ 50 nM
11 | C=CC(=O)N1CCOc2c1ccc1ncnc(Nc3ccc(Oc4ccccn4)cc3)c21 [Example 12, 1-(10-((4-(pyridin-2-yloxy)phenyl)amino)-2,3-dihydro-4H-[1,4]oxazino[2,3-f]quinazolin-4-yl)prop-2-en-1-one] | ≤ 50 nM
12 | C=CC(=O)N1CCOc2c1ccc1ncnc(Oc3ccc(Oc4cc(Cl)ccc4Cl)cc3)c21 [Example 38, 1-(10-(4-(2,5-dichlorophenoxy)phenoxy)-2,3-dihydro-4H-[1,4]oxazino[2,3-f]quinazolin-4-yl)prop-2-en-1-one] | ≤ 50 nM
13 | C=CC(=O)N1CCOc2c1ccc1ncnc(Nc3ccc(Oc4ccccc4OCCOC)cc3)c21 [Example 32, 1-(10-((4-(2-(2-methoxyethoxy)phenoxy)phenyl)amino)-2,3-dihydro-4H-[1,4]oxazino[2,3-f]quinazolin-4-yl)prop-2-en-1-one] | ≤ 50 nM
14 | C=CC(=O)N1CCOc2c1ccc1ncnc(Nc3ccc(Oc4ccc(Cl)cc4)cc3)c21 [Example 10, 1-(10-((4-(4-chlorophenoxy)phenyl)amino)-2,3-dihydro-4H-[1,4]oxazino[2,3-f]quinazolin-4-yl)prop-2-en-1-one] | ≤ 50 nM
15 | C=CC(=O)N1CCOc2c1ccc1ncnc(Nc3ccc(Oc4ccccc4OC)cc3)c21 [Example 11, 1-(10-((4-(2-methoxyphenoxy)phenyl)amino)-2,3-dihydro-4H-[1,4]oxazino[2,3-f]quinazolin-4-yl)prop-2-en-1-one] | ≤ 50 nM
16 | O=C(/C=C/CN1CCCCC1)N1CCOc2c1ccc1ncnc(Nc3ccc(Oc4ccccc4)c(F)c3)c21 [Example 98, (E)-1-(10-((3-fluoro-4-phenoxyphenyl)amino)-2,3-dihydro-4H-[1,4]oxazino[2,3-f]quinazolin-4-yl)-4-(piperidin-1-yl)but-2-en-1-one] | ≤ 50 nM
17 | C=CC(=O)N1CCOc2c1ccc1ncnc(Nc3ccc(Oc4cccc(C(F)(F)F)c4)cc3)c21 [Example 1, 1-(10-((4-(3-(trifluoromethyl)phenoxy)phenyl)amino)-2,3-dihydro-4H-[1,4]oxazino[2,3-f]quinazolin-4-yl)prop-2-en-1-one] | ≤ 50 nM
18 | C=CC(=O)N1CCOc2c1ccc1ncnc(Nc3ccc(Sc4ccc(F)cc4)cc3)c21 [Example 28, 1-(10-((4-((4-fluorophenyl)thio)phenyl)amino)-2,3-dihydro-4H-[1,4]oxazino[2,3-f]quinazolin-4-yl)prop-2-en-1-one] | ≤ 50 nM
19 | C=CC(=O)N1CCOc2c1ccc1ncnc(Nc3ccc(Oc4ccccc4)c(F)c3)c21 [Example 16, 1-(10-((3-fluoro-4-phenoxyphenyl)amino)-2,3-dihydro-4H-[1,4]oxazino[2,3-f]quinazolin-4-yl)prop-2-en-1-one] | ≤ 50 nM
20 | C=CC(=O)N1CCOc2c1ccc1ncnc(Oc3ccc(Oc4ccc(Cl)cc4)cc3)c21 [Example 36, 1-(10-(4-(4-chlorophenoxy)phenoxy)-2,3-dihydro-4H-[1,4]oxazino[2,3-f]quinazolin-4-yl)prop-2-en-1-one] | ≤ 50 nM
21 | C=CC(=O)N1CCOc2c1ccc1ncnc(Nc3ccc(Oc4ccccc4)cc3F)c21 [Example 29, 1-(10-((2-fluoro-4-phenoxyphenyl)amino)-2,3-dihydro-4H-[1,4]oxazino[2,3-f]quinazolin-4-yl)prop-2-en-1-one] | ≤ 50 nM
22 | C=CC(=O)N1CCOc2c1ccc1ncnc(Nc3ccc(OCc4ccccn4)cc3)c21 [Example 21, 1-(10-((4-(pyridin-2-ylmethoxy)phenyl)amino)-2,3-dihydro-4H-[1,4]oxazino[2,3-f]quinazolin-4-yl)prop-2-en-1-one] | ≤ 50 nM
23 | C=CC(=O)N1CCOc2c1ccc1ncnc(Nc3ccc(OCc4ccc(F)cc4)cc3)c21 [Example 18, 1-(10-((4-((4-fluorobenzyl)oxy)phenyl)amino)-2,3-dihydro-4H-[1,4]oxazino[2,3-f]quinazolin-4-yl)prop-2-en-1-one] | ≤ 50 nM
24 | C=CC(=O)N1CCOc2c1ccc1ncnc(Nc3ccc(OCc4cccs4)cc3)c21 [Example 22, 1-(10-((4-(thiophen-2-ylmethoxy)phenyl)amino)-2,3-dihydro-4H-[1,4]oxazino[2,3-f]quinazolin-4-yl)prop-2-en-1-one] | ≤ 50 nM
25 | C=CC(=O)N1CCOc2c1ccc1ncnc(Nc3ccc(Oc4ccccc4)c(Cl)c3)c21 [Example 17, 1-(10-((3-chloro-4-phenoxyphenyl)amino)-2,3-dihydro-4H-[1,4]oxazino[2,3-f]quinazolin-4-yl)prop-2-en-1-one] | ≤ 50 nM
26 | C=CC(=O)N1CCOc2c1ccc1ncnc(Nc3ccc(Oc4cccc(Cl)c4)cc3)c21 [Example 6, 1-(10-((4-(3-chlorophenoxy)phenyl)amino)-2,3-dihydro-4H-[1,4]oxazino[2,3-f]quinazolin-4-yl)prop-2-en-1-one] | ≤ 50 nM
27 | C=CC(=O)N1CCOc2c1ccc1ncnc(Nc3ccc(OCc4cccc(F)c4)c(C(F)(F)F)c3)c21 [Example 25, 1-(10-((4-((3-fluorobenzyl)oxy)-3-(trifluoromethyl)phenyl)amino)-2,3-dihydro-4H-[1,4]oxazino[2,3-f]quinazolin-4-yl)prop-2-en-1-one] | ≤ 50 nM
28 | C=CC(=O)N1CCOc2c1ccc1ncnc(Nc3ccc(Oc4ccccc4F)cc3)c21 [Example 8, 1-(10-((4-(2-fluorophenoxy)phenyl)amino)-2,3-dihydro-4H-[1,4]oxazino[2,3-f]quinazolin-4-yl)prop-2-en-1-one] | ≤ 50 nM
